Laboratory results from US20240158348A1, “HERBICIDAL CYCLIC AMIDES N-SUBSTITUTED WITH A HALOALKYLSULFONYLANILIDE GROUP” (FMC Corporation, priority 2021, published 2024).

Experiments:
Type in all cases: in vivo
[1] = test system: ryegrass, Italian (Italian ryegrass, Lolium multiflorum); test: Test C preemergence, Italian ryegrass; conditions: 0 is no effect, 100 is complete control
How it was run: (§1)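 Steps: sow in loam soil blended with sand; treat soil preemergence by directed spray, or treat young plants (2–10 cm, one to two leaves) postemergence; hold in greenhouse 10 or 12 days; rate injury visually relative to untreated controls on a 0–100 scale.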

[2] = test system: wheat (Triticum aestivum); test: Test C preemergence, wheat; conditions: 0 is no effect, 100 is complete control
[3] = test system: blackgrass (Alopecurus myosuroides); test: Test C postemergence, blackgrass; conditions: visual injury, 0 to 100 scale (0 no effect, 100 complete control)
How it was run: as §1

[4] = test system: foxtail, giant (giant foxtail, Setaria faberi); test: Test C postemergence, giant foxtail; conditions: visual injury, 0 to 100 scale (0 no effect, 100 complete control)
kochia (Bassia scoparia) = test: Test C postemergence, kochia; conditions: visual injury, 0 to 100 scale (0 no effect, 100 complete control)
How it was run: as §1

[5] = test system: ryegrass, Italian (Italian ryegrass, Lolium multiflorum); test: Test C postemergence, Italian ryegrass; conditions: visual injury, 0 to 100 scale (0 no effect, 100 complete control)
How it was run: as §1

[6] = test system: galium (catchweed bedstraw, Galium aparine); test: Test C postemergence, galium; conditions: visual injury, 0 to 100 scale (0 no effect, 100 complete control)
rice (Oryza sativa) = test: Test D flooded paddy test, rice; parameters: key: 0 = no effect, 100 = complete control; conditions: 250 g ai/ha, Flood; applied to paddy water at 2-leaf stage; visual rating after 13 days; scale 0 (no effect) to 100 (complete control)
How it was run: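 Under 3 cm of standing water, kept constant after treatment, 2-leaf plants received compound via the paddy water. Ratings on a 0–100 control scale were assigned visually after 13 greenhouse days; a dash denotes no test result.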

SMILES | Plant response rating (0 to 100 scale), Ryegrass, Italian ([1]; 31 g ai/ha Preemergence) | Plant response rating (0 to 100 scale), Ryegrass, Italian ([1]; 125 g ai/ha Preemergence) | Plant response rating (0 to 100 scale), Wheat ([2]; 31 g ai/ha Preemergence) | Plant response rating (0 to 100 scale), Wheat ([2]; 125 g ai/ha Preemergence) | Blackgrass plant response rating ([3]; 31 g ai/ha Postemergence) | Blackgrass plant response rating ([3]; 125 g ai/ha Postemergence) | Foxtail, Giant plant response rating ([4]; 31 g ai/ha Postemergence) | Foxtail, Giant plant response rating ([4]; 125 g ai/ha Postemergence) | Kochia plant response rating (kochia (Bassia scoparia); 31 g ai/ha Postemergence) | Kochia plant response rating (kochia (Bassia scoparia); 125 g ai/ha Postemergence) | Ryegrass, Italian plant response rating ([5]; 31 g ai/ha Postemergence) | Ryegrass, Italian plant response rating ([5]; 125 g ai/ha Postemergence) | Galium plant response rating ([6]; 31 g ai/ha Postemergence) | Galium plant response rating ([6]; 125 g ai/ha Postemergence) | Plant response rating, Rice (rice (Oryza sativa))
Cc1cc(C)c(N2CCC(OCC3CCCO3)C2=O)cc1NS(=O)(=O)C(F)(F)F (stereo not drawn) [Compound 42] | 20 | 90 | 30 | 90 | 0 | 50 | 20 | 90 | 10 | 60 | 20 | 70 | 50 | 90 | 15
Cc1c(NS(=O)(=O)C(F)(F)F)cc(N2CCC(OC3CC3)C2=O)c(C)c1C (stereo not drawn) [Compound 47] | 50 | 90 | 90 | 100 | 40 | 70 | 70 | 90 | 40 | 80 | 50 | 90 | 80 | 90 | 30
Cc1c(N2CCC(OC3CCC3)C2=O)cc(N(C(=O)OCC(C)C)S(=O)(=O)C(F)(F)F)c(C)c1C (stereo not drawn) [Compound 48] | 60 | 100 | 30 | 80 | 10 | 30 | 20 | 60 | 20 | 60 | 40 | 60 | 90 | 100 | 25
Cc1c(NS(=O)(=O)C(F)(F)F)cc(N2CCC(OCC3CCC3)C2=O)c(C)c1F (stereo not drawn) [Compound 64] | 50 | 90 | 20 | 70 | 0 | 20 | 0 | 20 | 50 | 100 | 0 | 20 | 100 | 100 | 15
